We go through twelve molecules from US10450292B2, “Inhibitors of bacterial RNA polymerase: arylpropanoyl, arylpropenoyl, and arylcyclopropanecarboxyl phloroglucinols” (Rutgers, The State University of New Jersey, priority 2015, dated 2019).

Experiment [1] deals with Escherichia coli D21f2tolC. The experiment is described as follows: microbe, parasite or virus in culture. To be noted: 16 h, read-out: MIC E. coli D21f2tolC, Mueller-Hinton II agar, 16 h at 37° C.
Experiment [2] has as its system Enterococcus faecalis ATCC 19433. The experiment is described as follows: Inhibition of bacterial growth in culture, spiral gradient endpoint assay (MIC). Format: cell-based. To be noted: Enterococcus faecalis, ATCC 19433 /, 16 h, read-out: MIC E. faecalis, Mueller-Hinton II agar, 16 h at 37° C. An excerpt:
J. Microbiol. Meths. […] Int. J. Exp. Clin. Chemother. […] Adv.

Experiment [3] relates to Staphylococcus aureus ATCC 12600. Described as above. To be noted: Staphylococcus aureus, ATCC12600, 16 h, read-out: MIC S. aureus 12600, Mueller-Hinton II agar, 16 h at 37° C.

≈ marks a conversion by molar mass, not a printed value.

On to `Cc1cc(Oc2ccccc2)ccc1/C=C/C(=O)c1c(O)cc(O)cc1O` [Example 31, (E)-3-(2-methyl-4-phenoxyphenyl)-1-(2,4,6-trihydroxyphenyl)prop-2-en-1-one], for which the MIC in experiment [1] is 1.4 µg/mL (≈ 3.86 µM); in experiment [2], 9.6 µg/mL (≈ 26.5 µM); in experiment [3], 5.8 µg/mL (≈ 16 µM).

In the case of `O=C(/C=C/c1ccc(Oc2ccccn2)cc1)c1c(O)cc(O)cc1O` [Example 6, (E)-3-(4-(pyridin-2-yloxy)phenyl)-1-(2,4,6-trihydroxyphenyl)prop-2-en-1-one], the MIC in experiment [1], in experiment [2] and in experiment [3] was more than 40 µg/mL each time.

Consider `O=C(c1c(O)cc(O)cc1O)C1CC1c1ccc(Oc2ccc(Cl)cc2Cl)cc1` (centres unmarked) [Example 29, (2-(4-(2,4-dichlorophenoxy)phenyl)cyclopropyl)(2,4,6-trihydroxyphenyl) methanone], for which the MIC in experiment [1] turned out to be 1.5 µg/mL (≈ 3.48 µM); in experiment [2], 2.4 µg/mL (≈ 5.56 µM); in experiment [3], 1.5 µg/mL (≈ 3.48 µM).

As to `CCCC1(CCC)C(=O)C(C(=O)CCc2ccc(Oc3ccc(F)cc3)cc2)=C(O)C=C1O` [Example 63, 2-(3-(4-(4-fluorophenoxy)phenyl)propanoyl)-3,5-dihydroxy-6,6-dipropylcyclohexa-2,4-dienone], the MIC is 2.4 µg/mL (≈ 5.3 µM) in experiment [1], more than 40 µg/mL in experiment [2] and 5.1 µg/mL (≈ 11.3 µM) in experiment [3].

For `O=C(/C=C/c1ccc(Oc2ccc(F)cc2)cc1C(F)(F)F)c1c(O)cc(O)cc1O` [Example 32, (E)-3-(4-(4-fluorophenoxy)-2-(trifluoromethyl)phenyl)-1-(2,4,6-trihydroxyphenyl)prop-2-en-1-one], the results for the MIC in experiment [1], in experiment [2] and in experiment [3] were 2.1 µg/mL (≈ 4.83 µM), 5.7 µg/mL (≈ 13.1 µM) and 3.5 µg/mL (≈ 8.06 µM), respectively.

For the molecule `Cc1cc(Oc2ccc(F)cc2)ccc1CCC(=O)c1c(O)cc(O)c(Cl)c1O` [Example 50, 1-(3-chloro-2,4,6-trihydroxyphenyl)-3-(4-(4-fluorophenoxy)-2-methylphenyl)propan-1-one], the MIC came to 19 µg/mL (≈ 45.6 µM) in experiment [1], 18 µg/mL (≈ 43.2 µM) in experiment [2] and 16 µg/mL (≈ 38.4 µM) in experiment [3].

Turning to `O=C(/C=C/c1ccc(OCc2ccccc2)cc1)c1c(O)cc(O)cc1O` [Example 7], the figures for the MIC in experiment [1], in experiment [2] and in experiment [3] were 16 µg/mL (≈ 44.2 µM), more than 40 µg/mL and more than 40 µg/mL, respectively.

`O=C(c1c(O)cc(O)cc1O)C1CC1c1ccc(Cl)cc1` (centres unmarked) [Example 2, (2-(4-chlorophenyl)cyclopropyl)(2,4,6-trihydroxyphenyl)methanone]: the figures for the MIC in experiment [1], in experiment [2] and in experiment [3] were 9.3 µg/mL (≈ 30.5 µM), 12 µg/mL (≈ 39.4 µM) and 12 µg/mL (≈ 39.4 µM), respectively.

In the case of `CC1=C(O)C(C)(C)C(=O)C(C(=O)C2CC2c2ccc(C(F)(F)F)cc2C(F)(F)F)=C1O` (centres unmarked) [Example 83, 2-(2-(2,4-bis(trifluoromethyl)phenyl)cyclopropanecarbonyl)-3,5-dihydroxy-4,6,6-trimethylcyclohexa-2,4-dienone], the results for the MIC in experiment [1], in experiment [2] and in experiment [3] were 2.4 µg/mL (≈ 5.35 µM), more than 40 µg/mL and 5 µg/mL (≈ 11.2 µM), respectively.

Turning to `CCC1=C(O)C(CC)(CC)C(=O)C(C(=O)CCc2ccc(Oc3ccc(F)cc3)cc2C(F)(F)F)=C1O` [Example 73, 4,6,6-triethyl-2-(3-(4-(4-fluorophenoxy)-2-(trifluoromethyl)phenyl)propanoyl)-3,5-dihydroxycyclohexa-2,4-dienone], the MIC in experiment [1] came out at 1.2 µg/mL (≈ 2.31 µM); in experiment [2], 1.6 µg/mL (≈ 3.07 µM); in experiment [3], 1.5 µg/mL (≈ 2.88 µM).

For the molecule `O=C(CCc1ccc(Oc2ccc(Cl)cc2)cc1C(F)(F)F)c1c(O)cc(O)cc1O` [Example 23, 3-(4-(4-chlorophenoxy)-2-(trifluoromethyl)phenyl)-1-(2,4,6-trihydroxyphenyl)propan-1-one], the MIC in experiment [1] is 1.7 µg/mL (≈ 3.75 µM); in experiment [2] it was 1.7 µg/mL (≈ 3.75 µM); in experiment [3] it was 1.1 µg/mL (≈ 2.43 µM).

In the case of `CCCc1c(O)cc(O)c(C(=O)/C=C/c2ccc(Oc3ccc(F)cc3)cc2)c1O` [Example 67, (E)-3-(4-(4-fluorophenoxy)phenyl)-1-(2,4,6-trihydroxy-3-propylphenyl)prop-2-en-1-one], the MIC in experiment [1] turned out to be 0.72 µg/mL (≈ 1.76 µM); in experiment [2], 0.55 µg/mL (≈ 1.35 µM).
